Laboratory results: ChEMBL document CHEMBL3526096, “Species differences in biliary clearance and possible relevance of hepatic uptake and efflux transporters involvement” (Drug Metab Dispos, 2013)

Columns and labels:
[1] = Drug excretion in iv dosed human assessed as compound excreted into bile after 6 hrs; format: ADME, organism-based; conditions: read-out: Drug excretion
Homo sapiens [2] = assay: Total biliary clearance in iv dosed human after 6 hrs by T-tube method; format: ADME, organism-based, Bile; conditions: in vivo
Rattus norvegicus [3] = assay: Total biliary clearance in iv dosed Wistar rat; format: ADME, organism-based, Bile; conditions: in vivo
Homo sapiens [4] = assay: Unbound biliary clearance in iv dosed human after 6 hrs; format: ADME, organism-based, Bile; conditions: in vivo
Rattus norvegicus [5] = assay: Unbound biliary clearance in iv dosed Wistar rat; format: ADME, organism-based, Bile; conditions: in vivo
[6] = Drug excretion in iv dosed Wistar rat assessed as compound excreted into bile; format: ADME, organism-based; conditions: read-out: Drug excretion
[7] = Drug excretion in iv dosed rat assessed as compound excreted into bile; format: ADME, organism-based; conditions: read-out: Drug excretion
[8] = Drug excretion in iv dosed human assessed as compound excreted into bile by T-tube method; format: ADME, organism-based; conditions: read-out: Drug excretion
[9] = Drug excretion in iv dosed dog assessed as compound excreted into bile; format: ADME, organism-based, Canis lupus familiaris; conditions: read-out: Drug excretion

Cn1nnnc1SCC1=C(C(=O)O)N2C(=O)[C@@H](NC(=O)[C@H](O)c3ccccc3)[C@H]2SC1 [CEFAMANDOLE]
dose excreted at 6 h [1]: 0.4% | CL (Homo sapiens [2]): 0.012 mL/min/kg | CL (Rattus norvegicus [3]): 5 mL/min/kg | CL free (Homo sapiens [4]): 0.048 mL/min/kg | CL free (Rattus norvegicus [5]): 29.41 mL/min/kg | dose excreted [6]: 33%

Cc1nnc(SCC2=C(C(=O)O)N3C(=O)[C@@H](NC(=O)Cn4cnnn4)[C@H]3SC2)s1 [CEFAZOLIN]
dose excreted [7]: 30% | dose excreted [8]: 0.1% | dose excreted [9]: 2%
